#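 Method: 48-hour compound exposure of cells in 96-well plates, five concentrations, linear interpolation of endpoints. GI50 marks 50% less growth.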 The source made the active and inactive calls. No stated cut-off is given here; in the data, active = GI50 up to about 1.1 µM and inactive = higher. Square brackets hold non-standard residues; d marks the D form. Peptide text beside a SMILES is read from it. * marks the point of attachment. AllylGly = C=CC[CH](N)C(=O)O; Boc = CC(C)(C)OC(=O)*; OtBu = CC(C)(C)O*
# Columns and labels:
# Experiment in all cases: NCI-60 cell line screen, 48 h
# [1] = test system: SF-539
# [2] = test system: HCC 2998
# [3] = test system: TK-10
# [4] = test system: NCI-H460
# [5] = test system: OVCAR-8
# [6] = test system: COLO 205
# [7] = test system: U-251
# [8] = test system: SW-620
# [9] = test system: SF-268
# [10] = test system: PC-3
# [11] = test system: LOX IMVI
# [12] = test system: UACC-257
# [13] = test system: IGROV-1
# [14] = test system: SK-MEL-28
# [15] = test system: MDA-MB-435
# [16] = test system: UO-31
# [17] = test system: HT-29
# [18] = test system: OVCAR-5
# [19] = test system: SN12C
# [20] = test system: Malme-3M
SMILES,GI50 [1],GI50 [2],GI50 [3],GI50 [4],GI50 [5],GI50 [6],GI50 [7],GI50 [8],GI50 [9],GI50 [10],GI50 [11],GI50 [12],GI50 [13],GI50 [14],GI50 [15],GI50 [16],GI50 [17],GI50 [18],GI50 [19],GI50 [20]
Cc1nc2c(O)c3c(c(O)c2nc1C)C1C=CC3CC1,14.6 µM (inactive),> 40.2 µM (inactive),20.6 µM (inactive),30.3 µM (inactive),7.45 µM (inactive),19.7 µM (inactive),9.44 µM (inactive),12400 nM (inactive),10.4 µM (inactive),9.35 µM (inactive),3530 nM (inactive),7.24 µM (inactive),7.31 µM (inactive),16.4 µM (inactive),3.04 µM (inactive),12 µM (inactive),21.4 µM (inactive),18.3 µM (inactive),12.7 µM (inactive),12.7 µM (inactive)
CCOC(=O)Nc1nc2cc(Cn3cccc3)ccc2[nH]1,0.865 µM (active),2.47 µM (inactive),19.5 µM (inactive),0.802 µM (active),2.39 µM (inactive),1.84 µM (inactive),1.2 µM (inactive),564 nM (active),8.73 µM (inactive),0.399 µM (active),2550 nM (inactive),3.82 µM (inactive),1.85 µM (inactive),4.89 µM (inactive),0.123 µM (active),14.4 µM (inactive),0.65 µM (active),16 µM (inactive),2.33 µM (inactive),1.09 µM (active)
C=CCC(NC(=O)C(CC(=O)OC(C)(C)C)NC(=O)OC(C)(C)C)C(=O)OC (stereo not given) (Boc-Asp(OtBu)-[AllylGly]-OMe; configuration not given here),> 100 µM (inactive),25.9 µM (inactive),> 100 µM (inactive),> 100 µM (inactive),16 µM (inactive),21.1 µM (inactive),> 42.9 µM (inactive),56100 nM (inactive),51.2 µM (inactive),> 100 µM (inactive),20900 nM (inactive),24 µM (inactive),> 100 µM (inactive),47.4 µM (inactive),> 53.2 µM (inactive),> 100 µM (inactive),> 100 µM (inactive),> 100 µM (inactive),> 67 µM (inactive),1.84 µM (inactive)
O=C(/C=C1\C[C@H]2C=Nc3ccccc3C(=O)N2C1)NCCCCNC(=O)/C=C1\C[C@H]2C=Nc3ccccc3C(=O)N2C1,14.9 µM (inactive),18 µM (inactive),10.4 µM (inactive),17.7 µM (inactive),4.93 µM (inactive),4.21 µM (inactive),3.37 µM (inactive),2550 nM (inactive),9.95 µM (inactive),14.4 µM (inactive),1970 nM (inactive),10.3 µM (inactive),14.5 µM (inactive),15.8 µM (inactive),7.4 µM (inactive),2.39 µM (inactive),14.2 µM (inactive),19.2 µM (inactive),5.05 µM (inactive),6.81 µM (inactive)
c1ccc2c(OCC3CO3)ccc(OCC3CO3)c2c1 (stereo not given),2.21 µM (inactive),11.8 µM (inactive),13.5 µM (inactive),3.42 µM (inactive),2.2 µM (inactive),10.6 µM (inactive),2.32 µM (inactive),1260 nM (inactive),0.571 µM (active),4.76 µM (inactive),515 nM (active),7.14 µM (inactive),3.44 µM (inactive),9.98 µM (inactive),2.44 µM (inactive),1.61 µM (inactive),4.82 µM (inactive),11.2 µM (inactive),2.22 µM (inactive),7.13 µM (inactive)
[O-]c1c2cc(-[n+]3c(-c4ccccc4)cc(-c4ccccc4)cc3-c3ccccc3)cc1CO[C@@H](c1ccccc1)[C@H](c1ccccc1)OCc1cccc(n1)CO[C@@H](c1ccccc1)[C@H](c1ccccc1)OC2,0.371 µM (active),0.453 µM (active),0.594 µM (active),0.056 µM (active),0.0488 µM (active),0.0259 µM (active),0.0285 µM (active),56.8 nM (active),0.0689 µM (active),0.0373 µM (active),49.8 nM (active),0.0803 µM (active),0.0388 µM (active),0.713 µM (active),0.0501 µM (active),0.625 µM (active),0.0318 µM (active),0.514 µM (active),0.0378 µM (active),0.0363 µM (active)
NC(=O)NN=C1Cc2ccccc2C1,> 100 µM (inactive),> 100 µM (inactive),> 100 µM (inactive),> 100 µM (inactive),> 100 µM (inactive),> 100 µM (inactive),> 100 µM (inactive),> 100000 nM (inactive),> 100 µM (inactive),> 100 µM (inactive),> 100000 nM (inactive),> 100 µM (inactive),> 100 µM (inactive),> 100 µM (inactive),> 100 µM (inactive),> 100 µM (inactive),> 100 µM (inactive),> 100 µM (inactive),> 100 µM (inactive),> 100 µM (inactive)
Cc1ccc2c3ccc4c(c3n(C)c2c1)C(=O)C=CC4=O,> 5.98 µM (inactive),> 10 µM (inactive),4.82 µM (inactive),> 10 µM (inactive),4.47 µM (inactive),2.5 µM (inactive),> 10 µM (inactive),1740 nM (inactive),> 10 µM (inactive),> 10 µM (inactive),> 10000 nM (inactive),6.67 µM (inactive),> 10 µM (inactive),> 6.01 µM (inactive),5.86 µM (inactive),> 10 µM (inactive),> 10 µM (inactive),> 10 µM (inactive),> 10 µM (inactive),2.58 µM (inactive)
OCC1OC(n2cnc3c(SCc4ccccc4)ncnc32)C(O)C1O (stereo not given),> 100 µM (inactive),8.24 µM (inactive),> 21.8 µM (inactive),> 44.7 µM (inactive),1.04 µM (active),14 µM (inactive),> 100 µM (inactive),21600 nM (inactive),21.2 µM (inactive),4.94 µM (inactive),2130 nM (inactive),> 100 µM (inactive),> 89.1 µM (inactive),> 100 µM (inactive),> 100 µM (inactive),23 µM (inactive),5.52 µM (inactive),> 96.2 µM (inactive),7.5 µM (inactive),> 100 µM (inactive)
C=C(CN(C)C)C(=O)c1ccc(Oc2ccccc2)cc1,3.13 µM (inactive),17.5 µM (inactive),5.86 µM (inactive),27.3 µM (inactive),3.28 µM (inactive),1.04 µM (active),10.3 µM (inactive),1310 nM (inactive),14 µM (inactive),3.98 µM (inactive),5570 nM (inactive),8.36 µM (inactive),14.9 µM (inactive),7.66 µM (inactive),3.85 µM (inactive),3.53 µM (inactive),7.82 µM (inactive),7.4 µM (inactive),5.37 µM (inactive),3.85 µM (inactive)
Cc1ccc(CC(=O)Nc2ccc(NC(=O)/C=C/NC(=O)/C=C/c3ccc(-c4ccccc4)cc3)cc2C(=O)c2ccccc2)cc1,1.67 µM (inactive),0.0237 µM (active),2.78 µM (inactive),1.87 µM (inactive),0.871 µM (active),1.75 µM (inactive),1.85 µM (inactive),1570 nM (inactive),2.62 µM (inactive),1.47 µM (inactive),2030 nM (inactive),2.05 µM (inactive),0.975 µM (active),3.03 µM (inactive),3.27 µM (inactive),3.67 µM (inactive),5.06 µM (inactive),2.09 µM (inactive),1.92 µM (inactive),3.39 µM (inactive)
COc1cc(C2c3cc4c(cc3CC3COC(=O)N32)OCO4)cc(OC)c1OC (stereo not given),2.39 µM (inactive),2.93 µM (inactive),> 22.9 µM (inactive),4 µM (inactive),4.03 µM (inactive),1.92 µM (inactive),3.79 µM (inactive),2130 nM (inactive),8.04 µM (inactive),1.99 µM (inactive),3140 nM (inactive),26.1 µM (inactive),7.13 µM (inactive),5.05 µM (inactive),0.404 µM (active),5.33 µM (inactive),2.12 µM (inactive),> 53.1 µM (inactive),4.73 µM (inactive),2.83 µM (inactive)
CCCC(=O)Nc1cc(/C=C/C(=O)N2CC(CCl)c3c2cc(OC(C)=O)c2[nH]cc(C)c32)n(C)c1 (stereo not given),< 2.5e-05 µM (active),< 2.5e-05 µM (active),0.000363 µM (active),< 2.5e-05 µM (active),< 2.5e-05 µM (active),7.03e-05 µM (active),< 2.5e-05 µM (active),0.0296 nM (active),< 2.5e-05 µM (active),5.01e-05 µM (active),< 0.025 nM (active),2.97e-05 µM (active),3.76e-05 µM (active),4.52e-05 µM (active),4.95e-05 µM (active),6.84e-05 µM (active),5.49e-05 µM (active),7.24e-05 µM (active),7.18e-05 µM (active),3.23e-05 µM (active)
C=CC1(CBr)CCC(C(C)(C)Br)O1 (stereo not given),16.9 µM (inactive),16.6 µM (inactive),15.1 µM (inactive),13 µM (inactive),2.9 µM (inactive),5.43 µM (inactive),6.27 µM (inactive),3560 nM (inactive),15.7 µM (inactive),12 µM (inactive),1740 nM (inactive),13.7 µM (inactive),8.13 µM (inactive),7.73 µM (inactive),12.6 µM (inactive),12.7 µM (inactive),5.77 µM (inactive),14.7 µM (inactive),16.6 µM (inactive),13.7 µM (inactive)

# — ChEMBL document CHEMBL1201862, “PubChem BioAssay data set” (2004)
